Patent US20090131356A1, “miR-15, miR-26, miR-31, miR-145, miR-147, miR-188, miR-215, miR-216, miR-331, mmu-miR-292-3P REGULATED GENES AND PATHWAYS AS TARGETS FOR THERAPEUTIC INTERVENTION” (ASURAGEN, INC., priority 2006, published 2009)

Tests used:
[1] = tested on: human H460 lung cancer xenografts; test: Established H460 lung tumor xenograft, intratumoral injection of lipid-formulated miRNA; assay type: in vivo, NOD/SCID mice; conditions: intratumoral 6.25 μg on days 11, 14 and 17, siPORT amine formulation; day 19
From the text: Delivery of hsa-miR-147 into human lung cancer cells prior to implantation into the animal inhibited the formation of lung tumor xenografts. […] To explore this possibility, 3×10^6 human H460 non-small cell lung cancer cells were mixed with BD Matrigel™, (BD Biosciences; San Jose, Calif., USA; cat. no. 356237) in a 1:1 ratio and subcutaneously injected into the lower back of each of 23 NOD/SCID mice (Charles River Laboratories, Inc.; Wilmington, Mass., USA). Once animals developed palpable tumors (day 11 post xenograft implantation), each animal in a group of six received intratumoral injections of 6.25 μg hsa-miR-147 (Dharmacon, Lafayette, Colo.) formulated with the lipid-based siPORT™ amine delivery agent (Ambion, Austin, Tex.; cat. no. AM4502) on days 11, 14 and 17. A control group of six animals each received intratumoral injections of 6.25 μg negative control miRNA (NC; Dharmacon, Lafayette, Colo.), following the same injection schedule that was used for hsa-miR-147. Given an average mouse weight of 20 g, this dose equals 0.3125 mg/kg. […] Caliper measurements of tumors were taken every 1-2 days, and tumor volumes were calculated using the formula, Volume=length×width×width/2, in which the length is greater than the width.

RWPE2 cells = test: Alamar Blue proliferation assay, RWPE2; assay type: cell-based, human; conditions: 30 nM, normalized to negative control miRNA (100% proliferation)
From the text: The inventors assessed the therapeutic effect of hsa-miR-147 for prostate cancer by using 4 individual human prostate cancer cell lines. To measure cellular proliferation of prostate cancer cells, the following prostate cancer cell lines were used: PPC-1 and PC3, derived from a bone metastasis; Du145, derived from a brain metastasis; RWPE2, derived from prostate cells immortalized by human papillomavirus 18 and transformed by the K-RAS oncogene (Bello et al., 1997; Stone et al., 1978; Brothman et al., 1991). PC3, PPC-1, and Du145 cells lack expression of the prostate-specific antigen (PSA) and are independent of androgen receptor (AR) signaling. In contrast, RWPE2 cells test positive for PSA and AR.
PPC-1, Du145 and RWPE2 cells were transfected with synthetic hsa-miR-147 (Pre-miR™-hsa-miR-147, Ambion cat. no. AM17100) or negative control miRNA (NC; Pre-miR™ microRNA Precursor Molecule-Negative Control #2; Ambion cat. no. AM17111) in a 96-well format using a lipid-based transfection reagent. […] Proliferation was assessed 4-7 days post-transfection using Alamar Blue™ (Invitrogen) following the manufacturer's instructions. […] Fluorescent light units (FLU) were measured after 3 hours, normalized to the control, and plotted as percent change in proliferation. […]

Which average tumor size [1] does the source give for “hsa-miR-147: Synthetic pre-miR-147 (Ambion AM17100; Dharmacon in vivo); mature sequence GUGUGUGGAAAUGCUUCUGC, MIMAT0000251, SEQ ID NO:114 (synthetic pre-miR (Ambion/Dharmacon), chemistry not given here; listed as Homo sapiens)” here?
Its average tumor size is 260 mm^3.

And the “% proliferation” value (RWPE2 cells)?
The value was 79.08%.
